{
  "source": "paper PMC10855533",
  "about": "“Saturation Transfer Difference NMR and Molecular Docking Interaction Study of Aralkyl-Thiodigalactosides as Potential Inhibitors of the Human-Galectin-3 Protein” (International Journal of Molecular Sciences, 2024)",
  "key": {"hGal-3 protein": {"biological_target": "hGal-3 protein (Homo sapiens, UniProt P17931)", "sequence (P17931 whole entry)": "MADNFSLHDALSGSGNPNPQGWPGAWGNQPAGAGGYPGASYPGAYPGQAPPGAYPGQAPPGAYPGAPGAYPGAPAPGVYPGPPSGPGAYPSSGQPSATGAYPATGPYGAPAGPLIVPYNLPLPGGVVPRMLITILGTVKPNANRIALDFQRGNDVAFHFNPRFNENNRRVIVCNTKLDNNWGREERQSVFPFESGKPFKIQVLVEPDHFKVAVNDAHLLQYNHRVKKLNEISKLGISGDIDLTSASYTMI", "test": "Competition STD 1H NMR titration against reference ligand TDG (5)", "format": "binding", "settings": "for Kd: calculated from IC50 with Kd(ref.) of TDG and Lref 4 mM (Equation 2); for Kd / Relative STD Intensity of H-4 of TDG titrated by competitor: 303 K; for Relative STD Intensity of H-4 of TDG titrated by competitor: 40 μM hGal-3, 4 mM TDG (5); for IC50: competitor concentration for 50% displacement of 4 mM TDG (5), 40 μM hGal-3, exponential fit; for Relative Affinity, Kd (ref.)/Kd (comp.): referenced to TDG (5), times stronger binding than TDG", "description": "The competition STD NMR method provides an opportunity to characterize moderately and strongly bound protein–ligand systems (KD = 10^−6 M − 10^−9 M), where the determination is not feasible in direct STD experiment due to kinetic reasons. In the competition experiment, the concentration of the target protein and the reference ligand is kept at a constant level. An STD spectrum of the starting sample state is obtained. Then, by adding the competitive ligand in increasing concentration step-by-step, the resonance signal changes in the STD spectra can be monitored. If the competitor ligand binds strongly to the target protein, a decrease in the STD signal intensities of the reference ligand is observed. If the IC50 value is reached before the equimolar ratio of the reference and the competitor ligand, it can be concluded that the competitor binds more strongly than the selected reference compound to the protein. The strength of the interaction can be quantified by the determination of the dissociation constant value (KD).\nBy plotting the relative STD ^1H NMR signal intensities of the H-4 proton of the reference compound (5) as a function of the concentration of the given competitor ligand, the IC50 values can be determined (Figure 4). The IC50 value gives the concentration of the competitor ligand required to halve the signal intensity of the reference ligand in the STD spectrum, so it provides the competitor concentration required for 50% displacement of the reference compound (5). IC50 values were calculated based on the equation of the exponential function fitted to the points measured.\nThe dissociation constant of the interaction was calculated according to the following equation (Equation (1)):(1) Kd(ref.)=Lref×Kd(comp.)/IC50−Kd(comp.)\nBy rearranging this equation, the Kd value of the competitor ligand (Kd(comp.)) can be obtained (Equation (2)):(2) Kd(comp.)=Kd(ref.)×IC50/Lref+Kd(ref.) where Kd(ref.) refers to the dissociation constant of the reference ligand, Lref is the concentration of the reference ligand, Kd(comp.) is the dissociation constant of the competitor compound, and IC50 is the concentration of the competitor compound at half-signal intensity."}, "[1]": {"settings": "for Aggregation during the series of STD titration experiments: up to 1:1 reference and competition ligand ratio (4 mM)", "protocol": "We chose the TDG (5), a well-known, moderately bound ligand of hGal-3, as a reference ligand for our competition STD ^1H NMR experiments. As a first step, we recorded an STD ^1H NMR spectrum on the starting sample, which always contained 40 μM hGal-3 protein and 4 mM TDG (1:100 protein reference ligand ratio). Then, the titration was started by adding the synthesized competitor ligand into the NMR sample step-by-step, and we performed STD experiments on each solution composition. […] Thus, the 100% STD effect was determined as the H-4 intensity value of TDG (5) in the initial sample state, and its relative decrease caused by adding the competitor ligand in increasing concentration was measured in each titration step (Table 1).\nAll ^1H STD NMR experiments were recorded on a Bruker Avance Neo 700 MHz spectrometer equipped with a 5 mm z-gradient (TCI) triple-tuned Prodigy cryoprobe. The measurements were performed at a temperature of 303 K. The data acquisition and processing were performed with TopSpin 3.6.2 and 4.1.1 software. Samples were prepared in 10 mM phosphate buffer solution (140 mM NaCl/KCl, pH = 7.4) in D2O. The initial sample contained 40 μM of hGal-3 protein and 4 mM of compound 5 for each experiment. Competitor ligands were added to the initial samples from stock solutions of different concentrations so that the smallest volume (2 μL) could be added in each titration step. […] The protein resonances were selectively irradiated in competition STD experiments by Eburp (90°) excitation pulses, with a length of 50 ms each with a maximum B1 field strength of 75 Hz yielding a total irradiation time of 3 s. The off-resonance pulse frequency was set to −40 ppm and the on-resonance frequency to 0 ppm. Off- and on-resonance data were recorded at alternate scans, and the corresponding FIDs were collected in separate memories of subsequent processing files, and STD spectra were produced after subtraction of the two subspectra. Competition STD spectra were typically recorded with 1200 repetitions (NS = 8, L4 = 150) to ensure an adequate signal-to-noise ratio for the analysis."}, "hGal-3": {"biological_target": "hGal-3", "parameters": "method as in PMID 32955737", "settings": "reference ligand TDG, ITC; cited from earlier work"}},
  "data": [
    {"smiles": "OC[C@H]1O[C@@H](S[C@@H]2O[C@H](CO)[C@H](O)[C@H](OCc3ccc4ccccc4n3)[C@H]2O)[C@H](O)[C@@H](OCc2ccc3ccccc3n2)[C@H]1O", "note": "[Compound 1, Bis-{3-O-[(Quinoline-2-yl)Methyl]-β-D-Galactopyranosyl}-Sulfane]", "values": [
      {"measurement": "Kd", "setting": "hGal-3 protein", "result": 1.7, "unit": "µM"},
      {"measurement": "Relative STD Intensity of H-4 of TDG titrated by competitor", "setting": "hGal-3 protein; competitor 40 μM", "result": 78, "unit": "%"},
      {"measurement": "Relative STD Intensity of H-4 of TDG titrated by competitor", "setting": "hGal-3 protein; competitor 80 μM", "result": 65, "unit": "%"},
      {"measurement": "Relative STD Intensity of H-4 of TDG titrated by competitor", "setting": "hGal-3 protein; competitor 100 μM", "result": 61, "unit": "%"},
      {"measurement": "Relative STD Intensity of H-4 of TDG titrated by competitor", "setting": "hGal-3 protein; competitor 250 μM", "result": 33, "unit": "%"},
      {"measurement": "Relative STD Intensity of H-4 of TDG titrated by competitor", "setting": "hGal-3 protein; competitor 300 μM", "result": 24, "unit": "%"},
      {"measurement": "Relative STD Intensity of H-4 of TDG titrated by competitor", "setting": "hGal-3 protein; competitor 4000 μM", "result": 0, "unit": "%"},
      {"measurement": "IC50", "setting": "hGal-3 protein", "result": 134, "unit": "µM"},
      {"measurement": "Relative Affinity, Kd (ref.)/Kd (comp.)", "setting": "hGal-3 protein", "result": 30},
      {"measurement": "Aggregation during the series of STD titration experiments", "setting": "[1]", "result": "did not observe any aggregation"}
    ]},
    {"smiles": "OC[C@H]1O[C@@H](S[C@@H]2O[C@H](CO)[C@H](O)[C@H](OCc3ccc4ccccc4c3)[C@H]2O)[C@H](O)[C@@H](OCc2ccc3ccccc3c2)[C@H]1O", "note": "[Compound 2, Bis-{3-O-[(Naphtalene-2-yl)Methyl]-β-D-Galactopyranosyl}-Sulfane]", "values": [
      {"measurement": "Kd", "setting": "hGal-3 protein", "result": 0.55, "unit": "µM"},
      {"measurement": "Relative STD Intensity of H-4 of TDG titrated by competitor", "setting": "hGal-3 protein; competitor 10 μM", "result": 86, "unit": "%"},
      {"measurement": "Relative STD Intensity of H-4 of TDG titrated by competitor", "setting": "hGal-3 protein; competitor 20 μM", "result": 68, "unit": "%"},
      {"measurement": "Relative STD Intensity of H-4 of TDG titrated by competitor", "setting": "hGal-3 protein; competitor 30 μM", "result": 59, "unit": "%"},
      {"measurement": "Relative STD Intensity of H-4 of TDG titrated by competitor", "setting": "hGal-3 protein; competitor 40 μM", "result": 55, "unit": "%"},
      {"measurement": "Relative STD Intensity of H-4 of TDG titrated by competitor", "setting": "hGal-3 protein; competitor 50 μM", "result": 37, "unit": "%"},
      {"measurement": "Relative STD Intensity of H-4 of TDG titrated by competitor", "setting": "hGal-3 protein; competitor 60 μM", "result": 33, "unit": "%"},
      {"measurement": "Relative STD Intensity of H-4 of TDG titrated by competitor", "setting": "hGal-3 protein; competitor 100 μM", "result": 24, "unit": "%"},
      {"measurement": "IC50", "setting": "hGal-3 protein", "result": 43, "unit": "µM"},
      {"measurement": "Relative Affinity, Kd (ref.)/Kd (comp.)", "setting": "hGal-3 protein", "result": 94},
      {"measurement": "Solubility", "setting": "[1]; pH 7.4", "result": "uncertain"}
    ]},
    {"smiles": "OC[C@H]1O[C@@H](S[C@@H]2O[C@H](CO)[C@H](O)[C@H](OCc3ccccc3)[C@H]2O)[C@H](O)[C@@H](OCc2ccccc2)[C@H]1O", "note": "[Compound 3, Bis-(3-O-Benzyl-β-D-Galactopyranosyl)-Sulfane]", "values": [
      {"measurement": "Kd", "setting": "hGal-3 protein", "result": 2.19, "unit": "µM"},
      {"measurement": "Relative STD Intensity of H-4 of TDG titrated by competitor", "setting": "hGal-3 protein; competitor 40 μM", "result": 85, "unit": "%"},
      {"measurement": "Relative STD Intensity of H-4 of TDG titrated by competitor", "setting": "hGal-3 protein; competitor 80 μM", "result": 75, "unit": "%"},
      {"measurement": "Relative STD Intensity of H-4 of TDG titrated by competitor", "setting": "hGal-3 protein; competitor 120 μM", "result": 64, "unit": "%"},
      {"measurement": "Relative STD Intensity of H-4 of TDG titrated by competitor", "setting": "hGal-3 protein; competitor 160 μM", "result": 50, "unit": "%"},
      {"measurement": "Relative STD Intensity of H-4 of TDG titrated by competitor", "setting": "hGal-3 protein; competitor 250 μM", "result": 31, "unit": "%"},
      {"measurement": "Relative STD Intensity of H-4 of TDG titrated by competitor", "setting": "hGal-3 protein; competitor 400 μM", "result": 28, "unit": "%"},
      {"measurement": "Relative STD Intensity of H-4 of TDG titrated by competitor", "setting": "hGal-3 protein; competitor 4000 μM", "result": 0, "unit": "%"},
      {"measurement": "IC50", "setting": "hGal-3 protein", "result": 172, "unit": "µM"},
      {"measurement": "Relative Affinity, Kd (ref.)/Kd (comp.)", "setting": "hGal-3 protein", "result": 24},
      {"measurement": "Aggregation during the series of STD titration experiments", "setting": "[1]", "result": "did not observe any aggregation"}
    ]},
    {"smiles": "OC[C@H]1O[C@@H](S[C@@H]2O[C@H](CO)[C@H](O)[C@H](O)[C@H]2O)[C@H](O)[C@@H](O)[C@H]1O", "note": "[Compound 5, Bis-(β-D-Galactopyranosyl)-Sulfane, reference compound]", "values": [
      {"measurement": "Relative Affinity, Kd (ref.)/Kd (comp.)", "setting": "hGal-3 protein", "result": 1},
      {"measurement": "Kd", "setting": "hGal-3", "result": 51.4, "unit": "µM"}
    ]}
  ]
}
